According to PubChem BioAssay AID1996:
≈ marks a conversion by molar mass, not a printed value.

Conditions: buffer; pH 7.4; 200.0 µM

Q: With `O=C(c1ccc(F)cc1)N(Cc1ccco1)C1CCS(=O)(=O)C1` (stereo not given) as the molecule, how does the solubility kinetic read?
A: > 50.6 µg/mL

Q: Which solubility kinetic does the source give for `O=C(Nc1ccc2ncccc2c1)c1ccccc1Br` here?
A: 3.3 µg/mL (≈ 10.1 µM)

Q: For `Cc1ccccc1CSCC(=O)Nc1ccccc1F`, which solubility kinetic is on record?
A: 27.9 µg/mL (≈ 96.4 µM)

Q: For `Cc1cc(=O)oc2cc(OCCC[n+]3ccccc3)ccc12.[Br-]`, which solubility kinetic is on record?
A: 53.6 µg/mL

Q: For `Cc1cc(N)c2ccccc2n1`, which solubility kinetic is on record?
A: > 23.7 µg/mL

Q: With `O=C(CNc1cccc([N+](=O)[O-])c1)NC(=O)NC1CCCCC1` as the molecule, how does the solubility kinetic read?
A: 30 µg/mL (≈ 93.6 µM)

Q: For `CCN(CC(=O)NC(C)C)C(=O)[C@@H](NC(=O)c1ccco1)C(C)C`, which solubility kinetic is on record?
A: > 50.6 µg/mL

Q: With `CCOc1ccc(NC(=O)C(=O)NCc2ccncc2)cc1` as the molecule, how does the solubility kinetic read?
A: 12.5 µg/mL (≈ 41.8 µM)

Q: With `O=c1oc2ccccc2nc1/C=C(\O)c1ccccc1` as the molecule, how does the solubility kinetic read?
A: 21.4 µg/mL (≈ 80.7 µM)

Q: For `CC(=O)Nc1ccc(NC(=O)COC(=O)c2cnccn2)cc1`, which solubility kinetic is on record?
A: > 47.1 µg/mL

Q: Which solubility kinetic does the source give for `Cc1ccc(C)c(OCC(=O)O/N=C(\N)c2cccc([N+](=O)[O-])c2)c1` here?
A: 1.2 µg/mL (≈ 3.5 µM)

Q: Which solubility kinetic does the source give for `Cc1ccc(C)c(NC(=O)Cn2cc(C(=O)C3CC3)c3ccccc32)c1` here?
A: < 0.4 µg/mL

Q: With `CCOC(=O)CCNCc1ccc(OC)c(OC)c1.Cl` as the molecule, how does the solubility kinetic read?
A: > 45.6 µg/mL

Q: Which solubility kinetic does the source give for `C#CCn1c2ccccc2c2nc3ccccc3nc21` here?
A: < 0.2 µg/mL

Q: Which solubility kinetic does the source give for `S=c1[nH]c(-c2cccs2)cn1-c1ccccc1` here?
A: 10.5 µg/mL (≈ 40.6 µM)

Q: With `COc1ccc(N2C(=O)C(F)(F)C2c2ccccc2F)cc1` (stereo not given) as the molecule, how does the solubility kinetic read?
A: 0.8 µg/mL (≈ 2.6 µM)

Q: For `COc1ccc(S(=O)(=O)Nc2cccnc2)cc1OC`, which solubility kinetic is on record?
A: > 44.1 µg/mL

Q: With `O=C(Nc1ccc(Cl)cc1)Nc1ccc(C(=O)N2CCOCC2)cc1` as the molecule, how does the solubility kinetic read?
A: 1.1 µg/mL (≈ 3.06 µM)

Q: With `CCOC(=O)C(NC(=O)C1C(C)N1S(=O)(=O)c1ccc(C)cc1)C(=O)OCC` (stereo not given) as the molecule, how does the solubility kinetic read?
A: > 61.9 µg/mL

Q: For `O=C(Nc1scc(-c2ccccc2)c1C(=O)O)c1ccccc1Cl`, which solubility kinetic is on record?
A: 52.6 µg/mL (≈ 147 µM)

Q: For `O=C(COC(=O)c1ccc([N+](=O)[O-])o1)Nc1ccc(F)cc1`, which solubility kinetic is on record?
A: > 46.2 µg/mL

Q: For `CC(=O)c1cccc(NC(=O)Nc2ccc3c(c2)OCO3)c1`, which solubility kinetic is on record?
A: 3.1 µg/mL (≈ 10.4 µM)

Q: Which solubility kinetic does the source give for `CC1CN(C(=O)COC(=O)c2ccccc2O)CC(C)O1` (stereo not given) here?
A: 40.1 µg/mL (≈ 137 µM)

Q: For `O=C(NC1CCC(O)CC1)c1cccc2cccnc12` (stereo not given), which solubility kinetic is on record?
A: > 40.5 µg/mL

Q: For `COc1ccc(NC(=S)NCCCN2CCOCC2)cc1`, which solubility kinetic is on record?
A: > 46.4 µg/mL

Q: Which solubility kinetic does the source give for `O=C(Nc1cccnc1)C12CC3CC(CC(C3)C1)C2` here?
A: > 38.5 µg/mL

Q: With `Cc1ccnc(NCc2ccc(Br)cc2)c1` as the molecule, how does the solubility kinetic read?
A: 2.3 µg/mL (≈ 8.3 µM)

Q: With `Cc1cc(N2CCCC2)nc2c(C)cccc12` as the molecule, how does the solubility kinetic read?
A: 7.2 µg/mL (≈ 31.8 µM)

Q: For `Cc1ccc(Nc2c(-c3ccc(C)o3)nc3ncccn23)cc1`, which solubility kinetic is on record?
A: 1.9 µg/mL (≈ 6.24 µM)

Q: Which solubility kinetic does the source give for `CCC(C(=O)NCCc1ccccc1)c1ccccc1` (stereo not given) here?
A: > 40.1 µg/mL

Q: Which solubility kinetic does the source give for `N#Cc1ccccc1OCC(=O)Nc1ccccc1C(=O)NC1CC1` here?
A: 48.3 µg/mL (≈ 144 µM)

Q: For `COc1ccc(CNC(=O)COC(=O)c2cc(C)nc3ccccc23)cc1`, which solubility kinetic is on record?
A: 18.3 µg/mL (≈ 50.2 µM)

Q: With `Cc1cc(C(=O)NC(C)C2CC2)c(Cl)cc1Cl` (stereo not given) as the molecule, how does the solubility kinetic read?
A: 4.7 µg/mL (≈ 17.3 µM)

Q: For `Cc1cc(C)c(S(=O)(=O)NC2CC2)c(C)c1`, which solubility kinetic is on record?
A: > 35.9 µg/mL

Q: For `CCOC(=O)N1CCN(CC(=O)c2ccc(O)cc2O)CC1`, which solubility kinetic is on record?
A: > 46.3 µg/mL

Q: Which solubility kinetic does the source give for `CC(C)CNC(=O)CN1c2cccc3cccc(c23)S1(=O)=O` here?
A: > 47.8 µg/mL

Q: Which solubility kinetic does the source give for `O=S(=O)(Nc1nccs1)c1ccc(NS(=O)(=O)c2c(F)cc(F)c(Cl)c2F)cc1` here?
A: > 72.6 µg/mL

Q: For `COc1cc([N+](=O)[O-])ccc1N1C(=O)C2C3C=CC(C4CC34)C2C1=O` (stereo not given), which solubility kinetic is on record?
A: 7.2 µg/mL (≈ 21.2 µM)

Q: With `CC(C(=O)Nc1ccc(Cl)cc1)N1C(=O)NC2(CCCC2)C1=O` (stereo not given) as the molecule, how does the solubility kinetic read?
A: 25.8 µg/mL (≈ 76.8 µM)

Q: With `COCCn1c(C)cc(C(=O)CN2c3cccc4cccc(c34)S2(=O)=O)c1C` as the molecule, how does the solubility kinetic read?
A: 3.5 µg/mL (≈ 8.78 µM)

Q: For `COc1ccc(NC(=O)C2C3C=CC(C3)C2C(=O)O)cc1` (stereo not given), which solubility kinetic is on record?
A: > 43.1 µg/mL

Q: Which solubility kinetic does the source give for `Cc1ccc(NC(=O)c2cc(=O)[nH]c3ccccc23)cc1` here?
A: 1.6 µg/mL (≈ 5.75 µM)

Q: With `O=C(CN1C(=O)S/C(=C\c2ccccn2)C1=O)Nc1ccccc1` as the molecule, how does the solubility kinetic read?
A: 1.5 µg/mL (≈ 4.42 µM)

Q: For `Cc1nc2ccccc2c(=O)n1-c1ccc(Cl)cc1[N+](=O)[O-]`, which solubility kinetic is on record?
A: 7.2 µg/mL (≈ 22.8 µM)

Q: For `N#Cc1cccc(NC(=O)CSc2n[nH]c(=O)[nH]c2=O)c1`, which solubility kinetic is on record?
A: > 45.5 µg/mL

Q: Which solubility kinetic does the source give for `COc1ccc(NC(=O)COC(=O)CCc2ccccc2)c(OC)c1` here?
A: 5.2 µg/mL (≈ 15.1 µM)

Q: For `Cc1cc(C)cc(N=C2NC(=O)CS2)c1`, which solubility kinetic is on record?
A: > 33 µg/mL

Q: For `O=C(/C=C/c1ccccc1)Nc1cc(NC(=O)/C=C/c2ccccc2)cc(C(=O)O)c1`, which solubility kinetic is on record?
A: 52.7 µg/mL (≈ 128 µM)

Q: With `COc1ccc(-c2nc(S(=O)(=O)c3ccccc3)c(NCCCN3CCOCC3)o2)cc1` as the molecule, how does the solubility kinetic read?
A: 67.8 µg/mL (≈ 148 µM)

Q: For `O=C1NC(=O)N(Cc2ccc(F)cc2)C(=O)/C1=C\C=C\c1ccco1`, which solubility kinetic is on record?
A: 10 µg/mL (≈ 29.4 µM)

Q: Which solubility kinetic does the source give for `CN(Cc1nc(-c2ccccc2)no1)C(=O)c1ccco1` here?
A: > 42.5 µg/mL

Q: Which solubility kinetic does the source give for `COc1cc(C(=O)OCC(=O)N2CCCC2)cc2c1OCCO2` here?
A: > 48.2 µg/mL

Q: For `COc1ccc(C)cc1NC(=O)C1CC(=O)N(CCc2ccccc2)C1` (stereo not given), which solubility kinetic is on record?
A: > 52.9 µg/mL

Q: For `O=C(Nc1csc([N+](=O)[O-])c1)Nc1ccccc1Cl`, which solubility kinetic is on record?
A: 1 µg/mL (≈ 3.36 µM)

Q: Which solubility kinetic does the source give for `Cc1ccc(NC(=O)CC2SCCNC2=O)cc1[N+](=O)[O-]` (stereo not given) here?
A: 36.2 µg/mL (≈ 117 µM)

Q: For `CCc1nc(NCCO)c(C#N)c2c1CCCC2`, which solubility kinetic is on record?
A: 35.5 µg/mL (≈ 145 µM)

Q: Which solubility kinetic does the source give for `Cc1cccc(-c2noc(CNS(=O)(=O)c3ccccc3)n2)c1` here?
A: > 49.4 µg/mL

Q: With `CCOC(=O)c1c2c3c(cccc3n(C)c1=O)C(=O)c1ccccc1-2` as the molecule, how does the solubility kinetic read?
A: 2.6 µg/mL (≈ 7.8 µM)

Q: Which solubility kinetic does the source give for `Clc1ccccc1OCCCn1ccnc1` here?
A: 26.4 µg/mL (≈ 112 µM)

Q: Which solubility kinetic does the source give for `COc1ccccc1CNC1CCN(Cc2ccccc2)CC1` here?
A: > 46.6 µg/mL
